Assay results from US10227347B2, “Purinyl-N-hydroxyl pyrimidine formamide derivative, preparation methods and uses thereof” (Guizhou Bailing Group Pharmaceutical CO., LTD., priority 2015, dated 2019).
Where two headings read alike, the source gives them in different places.

Columns and labels:
[1] = tested on: hct116 cells (colon cancer); assay: Cell proliferation inhibition, hct116 (MTT); assay type: cell-based; conditions: Homo sapiens, HCT-116
Procedure: (§1) The tumor cell lines are purchased from American Type Culture Collection (ATCC) and cultivated to the status of logarithmic growth as per the cultural method recommended by ATCC. The cells in logarithmic phase are spread on a 96 well plate as per 2000-3000/well; as for anchorage-dependent cells, the compound should be added in the test wells at certain concentration for incubation for 96 h after cell adherence. Determining cell proliferation activities with method MTT for tumor cells representing solid tumor model and with method cck-8 for tumor cells representing hematologic tumor model, and analyzing the result data with the software GraphPad Prism.
(§2) Calculating the value of IC50 as per the formula: Y=background data+(top data−background data)/(1+10^((Log IC50−X)*rate of curve)). Where, Y refers to the inhibition ratio (%) and X refers to the compound concentration.

[2] = biological target: T1, HDAC1 (Homo sapiens, UniProt Q13547); assay: In vitro HDAC1 enzymatic activity inhibition (Lys-Ac-AMC substrate); assay type: biochemical
T1 construct: purchased BPS Bioscience
Procedure, shortened: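 Fluorogenic Lys-Ac-AMC deacetylation with trypsin development in modified Tris buffer pH 7.0; compound preincubated with enzyme 15 min at ambient temperature before substrate addition. Final HDAC1 6 nM, trypsin 0.05 μM, Ac-peptide 8 μM. IC50 from four-parameter fit of % inhibition versus concentration.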

[3] = tested on: A2780s cells (ovarian cancer); assay: Cell proliferation inhibition, A2780s (MTT); assay type: cell-based; conditions: Homo sapiens
Procedure: as §1, §2

[4] = biological target: T2, PI3Kδ (Homo sapiens, UniProt O00329); assay: PI3Kδ activity inhibition (Kinase-Glo); assay type: biochemical; conditions: Table 1, graded
T2 construct: purchased Millipore 14-604-K
Procedure: Detecting the inhibition capability of the compound to PI3Kα and PI3Kδ activities with Kinase-Glo (purchased from Promege Company; Catalog No.: V3771). […] The reaction system also comprises substrates as PIP2 (4, 5-diphosphoinositide, purchased from Life Technologies Company) and ATP (triphosadenine, purchased from Sigma Company). The reaction buffer system comprises 50 mM HEPES (4-hydroxyethylpiperazine ethane sulfonic acid), 3 mM MgCl2, 1 mM EGTA (ethylene glycol bis(2-amino ethylether)quadrol), 100 mM NaCl, 0.03% CHAPS (3-[3-(cholamidopropyl)dimethylamino]-1-propanesulfonic acid), 2 mM DTT (dithiothreitol). The pH value of the reaction buffer is 7.5. […] Mixing the system evenly for incubation under ambient temperature (for 1 h in PI3Kα test and for 2 h in PI3Kδ test). After incubation, adding 10 μL Kinase-Glo which has been preheated to ambient temperature into each reaction well to terminate the reaction; shaking it in dark place for 15 min after it is mixed evenly, then measuring the fluorescence intensity with a microplate reader and analyzing the result data with the software GraphPad Prism.
(§3) Calculating the value of IC50 as per the formula: Y=background data+(top data−background data)/(1+10^((Log IC50−X)*rate of curve))
(§4) Where, Y refers to the inhibition ratio (%) and X refers to the compound concentration.

[5] = biological target: T3, mTOR (Homo sapiens, UniProt P42345); assay: mTOR activity inhibition (ULight-4E-BP1 peptide); assay type: biochemical; conditions: Table 1, graded
T3 construct: purchased Millipore 14-770
Procedure: mTOR protein is purchased from Millipore Company (Catalog No.: 14-770). The reaction buffer system comprises 50 mM HEPES, 10 mM MgCl2, 1 mM EGTA, 3 mM […], 0.01% Tween-20 (purchased from Chengdu Kelong Chemical Regent Factory) and 2 mM DTT. The pH value of the reaction buffer is 7.5. Preparing 10 μL reaction system in corresponding wells of the 384 well plate, which contains the compositions as: the compound with designed concentration (or blank control), mTOR protein (with the concentration of 2.5 nM), ULight-4E-BP1 (containing the 37th and the 46th threonine residues, Thr37/46) peptide (purchased from PE Company, Catalog No.: TRF0128-M) and ATP substrates (ULight-4E-BP1 peptide, with the concentration of 50 nM and ATP, with the concentration of […]). Mixing it evenly for incubation under ambient temperature for 1 h; adding 10 μL testing liquid containing EDTA (ethylenediaminetetraacetic acid) and Eu-anti-phosphorylation-4E-BP1 (Thr37/46) antibody (purchased from PE Company, Catalog No.: TRF0216-M) into the reaction wells (after the testing liquid is added, the concentration of EDTA is 8 mM and the concentration of Eu-phosphorylation-4E-BP1 antibody is 2 nM); mixing it evenly and incubating it for 1 h under ambient temperature, then measuring the fluorescence intensity with a microplate reader and analyzing the result data with the software GraphPad Prism.
as §3, §4

[6] = tested on: MV4-11 cells (acute myeloid leukemia); assay: Cell proliferation inhibition, MV4-11 (cck-8); assay type: cell-based; conditions: Homo sapiens
Procedure: as §1, §2

[7] = biological target: T4, PI3Kα (Homo sapiens, UniProt P42336); assay: PI3Kα activity inhibition (Kinase-Glo); assay type: biochemical
T4 construct: purchased Invitrogen PV4788
Procedure, shortened: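 Kinase-Glo luminescence read-out of remaining ATP after PI3K reaction with PIP2 and ATP substrates in 50 mM HEPES pH 7.5, 3 mM MgCl2, 1 mM EGTA, 100 mM NaCl, 0.03% CHAPS, 2 mM DTT. Incubated at ambient temperature, 1 h for PI3Kα, 2 h for PI3Kδ. IC50 from four-parameter fit of % inhibition versus concentration.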

[8] = biological target: T5, PI3Kγ (Homo sapiens, UniProt P48736); assay: PI3Kγ activity inhibition (ADP-Glo); assay type: biochemical; conditions: Table 1, graded
T5 construct: purchased Invitrogen PR8641C
Procedure: (§5) Detecting the inhibition capability of the compound to PI3Kβ and PI3Kγ activities with ADP-Glo (purchased from Promege Company; Catalog No.: v9102/3). […] The reaction system also comprises substrates as PIP2 and ATP. The reaction buffer system comprises 50 mM HEPES, 3 mM MgCl2, 1 mM EGTA, 100 mM NaCl, 0.03% CHAPS and 2 mM DTT. The pH value of the reaction buffer is 7.5. […] Mixing the system evenly for incubation under ambient temperature for 1 h; getting a new 384 well plate and transferring 5 μL reaction liquid from the each well of original 384 well plate to the corresponding wells of the new 384 well plate; adding 5 μL ADP-Glo which has been preheated to ambient temperature into each new reaction well to terminate the reaction; oscillating it slowly in dark place for 40 min's incubation after it is mixed evenly; adding 10 μL testing liquid in each reaction well, oscillating it for 1 min to mix evenly and incubating it for 1 h, then measuring the fluorescence intensity with a microplate reader and analyzing the result data with the software GraphPad Prism.
as §3, §4

[9] = biological target: T6, PI3Kβ (Homo sapiens, UniProt P42338); assay: PI3Kβ activity inhibition (ADP-Glo); assay type: biochemical; conditions: Table 1, graded
T6 construct: purchased Millipore 14-603-K
Procedure: as §5, §3, §4

[10] = tested on: acetylated Ac-α-tubulin in A2780s cells; assay: Induction of α-tubulin acetylation in A2780s cells (cytoblot); assay type: cell-based; conditions: Homo sapiens, 6 h treatment, read-out: Ac-Tub EC50
Procedure: (§6) Specific operation: After the treatment, washing each well once with 50-100 μl of cold TBS buffer [with the composition as 20 mM Tris (trismetyl aminomethane), pH7.5] and fixing it with 100 μL of 4% pre-cooled paraformaldehyde at 4° C. for 1 h; after paraformaldehyde is washed off, adding 50 μL of pre-cooled methyl alcohol in each well and evenly spreading at 4° C. for 5 min; after methyl alcohol is washed off, washing it once with the TBS buffer containing 3% skim milk powder and adding 50 μL of antibody fluid, oscillating it slightly at 4° C. and incubating overnight. For determination of Ac—H3, the antibody fluid is prepared by diluting Ac—H3 antibody and horseradish peroxide coupled secondary antibody to a same system with the TBS buffer containing 3% skim milk powder (Ac—H3 antibody is purchased from Santa Cruz Company and diluted at a ratio of 1:100; horseradish peroxide coupled secondary antibody is purchased from Jackson Company and diluted at a ratio of 1:2000); for determination of acetylated Ac-α-tubulin, the antibody fluid is prepared by diluting Ac-α-tubulin antibody and horseradish peroxide coupled secondary antibody to a same system with the TBS buffer containing 3% skim milk powder (Ac-α-tubulin antibody is purchased from Santa Cruz Company and diluted at a ratio of 1:100; horseradish peroxide coupled secondary antibody is purchased from Jackson Company and diluted at a ratio of 1:2000).
(§7) Calculating the value of IC50 as per the formula: Y=background data+(top data−background data)/(1+10^((Log EC50−X)*rate of curve)) Where, Y refers to the activating rate (%) and X refers to the compound concentration.

[11] = tested on: acetylated histone H3 (Ac-H3) in A2780s cells; assay: Induction of histone H3 acetylation in A2780s cells (cytoblot); assay type: cell-based; conditions: Homo sapiens, 6 h treatment
Procedure: as §6, §7

[12] = 96 h incubation, read-out: Proliferation IC50, Colon cancer hct116
[13] = Table 1, graded, read-out: HDAC1 IC50
[14] = 96 h incubation, read-out: Proliferation IC50, Ovarian cancer A2780s
[15] = 96 h incubation, read-out: Proliferation IC50, Acute myeloid leukemia MV4-11
[16] = Table 1, graded, read-out: PI3Kα IC50
[17] = read-out: inhibition value IC50 to the activity of HDAC1
[18] = read-out: IC50 to proliferation of hct116 cells
[19] = read-out: IC50 to proliferation of A2780s cells
[20] = read-out: IC50 to proliferation of MV4-11 cells
[21] = read-out: inhibition value IC50 to the activity of PI3Kα

T2 sequence (O00329 whole entry): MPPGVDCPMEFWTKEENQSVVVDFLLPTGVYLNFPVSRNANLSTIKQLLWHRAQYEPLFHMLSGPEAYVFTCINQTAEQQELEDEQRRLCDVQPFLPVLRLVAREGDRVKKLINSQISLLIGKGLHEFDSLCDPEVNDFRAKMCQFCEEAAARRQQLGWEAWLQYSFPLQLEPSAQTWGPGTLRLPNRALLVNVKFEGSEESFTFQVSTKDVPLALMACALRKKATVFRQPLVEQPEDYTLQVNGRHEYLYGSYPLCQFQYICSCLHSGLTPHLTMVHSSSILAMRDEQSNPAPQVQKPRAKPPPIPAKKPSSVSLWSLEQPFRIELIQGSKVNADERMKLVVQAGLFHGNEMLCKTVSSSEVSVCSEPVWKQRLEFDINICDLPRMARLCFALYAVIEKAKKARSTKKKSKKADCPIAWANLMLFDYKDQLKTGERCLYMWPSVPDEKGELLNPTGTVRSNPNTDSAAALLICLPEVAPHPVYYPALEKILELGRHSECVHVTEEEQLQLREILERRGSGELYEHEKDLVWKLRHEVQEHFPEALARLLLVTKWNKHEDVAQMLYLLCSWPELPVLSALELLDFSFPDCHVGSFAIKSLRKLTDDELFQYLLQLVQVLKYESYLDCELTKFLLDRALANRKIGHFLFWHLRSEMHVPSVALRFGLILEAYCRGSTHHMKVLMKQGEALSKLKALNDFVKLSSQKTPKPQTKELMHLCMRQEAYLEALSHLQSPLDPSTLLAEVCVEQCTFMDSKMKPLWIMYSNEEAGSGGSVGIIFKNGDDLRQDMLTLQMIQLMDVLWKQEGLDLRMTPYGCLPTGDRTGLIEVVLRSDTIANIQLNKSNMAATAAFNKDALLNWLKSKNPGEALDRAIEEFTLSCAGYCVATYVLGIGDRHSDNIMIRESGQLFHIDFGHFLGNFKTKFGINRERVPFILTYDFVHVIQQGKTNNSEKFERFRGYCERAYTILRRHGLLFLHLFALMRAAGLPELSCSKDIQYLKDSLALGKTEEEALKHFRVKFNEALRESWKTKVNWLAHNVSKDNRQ
T2 sequence (P27986 whole entry partner): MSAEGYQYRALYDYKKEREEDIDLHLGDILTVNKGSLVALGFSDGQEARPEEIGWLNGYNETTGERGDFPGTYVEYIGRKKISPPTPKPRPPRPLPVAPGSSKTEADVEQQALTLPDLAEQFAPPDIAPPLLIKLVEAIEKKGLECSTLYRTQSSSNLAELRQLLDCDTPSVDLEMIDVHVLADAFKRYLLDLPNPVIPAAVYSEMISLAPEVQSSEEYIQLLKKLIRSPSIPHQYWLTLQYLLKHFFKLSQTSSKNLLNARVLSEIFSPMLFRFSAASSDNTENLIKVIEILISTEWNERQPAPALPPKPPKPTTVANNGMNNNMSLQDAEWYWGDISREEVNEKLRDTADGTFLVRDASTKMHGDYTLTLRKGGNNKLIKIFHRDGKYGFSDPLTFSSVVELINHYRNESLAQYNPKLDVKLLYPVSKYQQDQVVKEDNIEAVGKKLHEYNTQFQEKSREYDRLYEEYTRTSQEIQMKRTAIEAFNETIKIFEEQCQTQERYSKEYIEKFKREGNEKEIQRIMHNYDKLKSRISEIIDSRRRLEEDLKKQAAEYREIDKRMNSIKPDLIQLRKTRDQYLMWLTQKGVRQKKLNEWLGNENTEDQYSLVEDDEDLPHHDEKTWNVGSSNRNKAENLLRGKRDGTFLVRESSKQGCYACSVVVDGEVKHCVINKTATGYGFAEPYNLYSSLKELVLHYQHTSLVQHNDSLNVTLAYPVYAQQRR
T1 sequence (Q13547 whole entry, species assumed): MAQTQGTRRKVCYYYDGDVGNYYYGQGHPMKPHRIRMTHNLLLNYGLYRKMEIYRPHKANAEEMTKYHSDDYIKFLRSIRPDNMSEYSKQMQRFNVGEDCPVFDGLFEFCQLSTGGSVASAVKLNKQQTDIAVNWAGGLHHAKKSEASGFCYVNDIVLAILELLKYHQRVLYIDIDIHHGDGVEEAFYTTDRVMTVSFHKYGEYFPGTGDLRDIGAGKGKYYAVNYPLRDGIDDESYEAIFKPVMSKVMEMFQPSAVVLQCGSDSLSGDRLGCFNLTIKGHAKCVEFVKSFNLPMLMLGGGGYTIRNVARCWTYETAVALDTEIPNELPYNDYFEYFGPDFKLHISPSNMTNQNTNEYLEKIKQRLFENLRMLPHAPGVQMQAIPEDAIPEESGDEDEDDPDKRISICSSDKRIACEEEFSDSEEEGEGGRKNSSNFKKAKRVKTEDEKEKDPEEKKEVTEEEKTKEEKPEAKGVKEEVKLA
T3 sequence (P42345 1362-2549 limits assumed): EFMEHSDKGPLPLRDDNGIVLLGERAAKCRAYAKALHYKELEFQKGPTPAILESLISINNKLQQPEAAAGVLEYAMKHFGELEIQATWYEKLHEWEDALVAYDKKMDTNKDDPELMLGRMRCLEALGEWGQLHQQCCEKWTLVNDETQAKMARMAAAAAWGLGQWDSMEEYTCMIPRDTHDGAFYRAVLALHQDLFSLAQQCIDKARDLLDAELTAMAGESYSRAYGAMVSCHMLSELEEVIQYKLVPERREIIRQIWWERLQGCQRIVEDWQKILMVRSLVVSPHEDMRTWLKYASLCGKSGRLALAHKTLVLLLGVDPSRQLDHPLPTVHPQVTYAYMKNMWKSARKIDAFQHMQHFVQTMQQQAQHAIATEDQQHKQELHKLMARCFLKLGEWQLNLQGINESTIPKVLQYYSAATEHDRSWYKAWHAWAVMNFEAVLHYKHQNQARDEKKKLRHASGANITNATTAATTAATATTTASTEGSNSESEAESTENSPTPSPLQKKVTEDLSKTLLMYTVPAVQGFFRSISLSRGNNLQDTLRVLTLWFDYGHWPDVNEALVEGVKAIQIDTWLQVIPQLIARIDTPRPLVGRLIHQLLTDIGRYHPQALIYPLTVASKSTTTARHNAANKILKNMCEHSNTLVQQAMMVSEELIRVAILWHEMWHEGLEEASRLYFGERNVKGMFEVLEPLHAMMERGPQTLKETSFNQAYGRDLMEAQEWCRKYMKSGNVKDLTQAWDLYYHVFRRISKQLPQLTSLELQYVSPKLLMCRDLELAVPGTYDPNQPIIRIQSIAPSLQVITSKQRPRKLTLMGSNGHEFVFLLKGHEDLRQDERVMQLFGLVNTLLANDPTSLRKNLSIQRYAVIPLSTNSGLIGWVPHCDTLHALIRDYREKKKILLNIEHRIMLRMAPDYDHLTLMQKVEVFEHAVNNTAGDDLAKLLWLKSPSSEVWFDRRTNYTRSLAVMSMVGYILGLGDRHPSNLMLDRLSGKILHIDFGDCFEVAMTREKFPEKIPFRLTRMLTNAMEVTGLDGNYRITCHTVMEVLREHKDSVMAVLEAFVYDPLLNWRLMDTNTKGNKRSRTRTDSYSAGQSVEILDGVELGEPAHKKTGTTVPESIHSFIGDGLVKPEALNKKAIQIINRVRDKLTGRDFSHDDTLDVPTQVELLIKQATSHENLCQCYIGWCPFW
T4 sequence (P42336 whole entry, species assumed): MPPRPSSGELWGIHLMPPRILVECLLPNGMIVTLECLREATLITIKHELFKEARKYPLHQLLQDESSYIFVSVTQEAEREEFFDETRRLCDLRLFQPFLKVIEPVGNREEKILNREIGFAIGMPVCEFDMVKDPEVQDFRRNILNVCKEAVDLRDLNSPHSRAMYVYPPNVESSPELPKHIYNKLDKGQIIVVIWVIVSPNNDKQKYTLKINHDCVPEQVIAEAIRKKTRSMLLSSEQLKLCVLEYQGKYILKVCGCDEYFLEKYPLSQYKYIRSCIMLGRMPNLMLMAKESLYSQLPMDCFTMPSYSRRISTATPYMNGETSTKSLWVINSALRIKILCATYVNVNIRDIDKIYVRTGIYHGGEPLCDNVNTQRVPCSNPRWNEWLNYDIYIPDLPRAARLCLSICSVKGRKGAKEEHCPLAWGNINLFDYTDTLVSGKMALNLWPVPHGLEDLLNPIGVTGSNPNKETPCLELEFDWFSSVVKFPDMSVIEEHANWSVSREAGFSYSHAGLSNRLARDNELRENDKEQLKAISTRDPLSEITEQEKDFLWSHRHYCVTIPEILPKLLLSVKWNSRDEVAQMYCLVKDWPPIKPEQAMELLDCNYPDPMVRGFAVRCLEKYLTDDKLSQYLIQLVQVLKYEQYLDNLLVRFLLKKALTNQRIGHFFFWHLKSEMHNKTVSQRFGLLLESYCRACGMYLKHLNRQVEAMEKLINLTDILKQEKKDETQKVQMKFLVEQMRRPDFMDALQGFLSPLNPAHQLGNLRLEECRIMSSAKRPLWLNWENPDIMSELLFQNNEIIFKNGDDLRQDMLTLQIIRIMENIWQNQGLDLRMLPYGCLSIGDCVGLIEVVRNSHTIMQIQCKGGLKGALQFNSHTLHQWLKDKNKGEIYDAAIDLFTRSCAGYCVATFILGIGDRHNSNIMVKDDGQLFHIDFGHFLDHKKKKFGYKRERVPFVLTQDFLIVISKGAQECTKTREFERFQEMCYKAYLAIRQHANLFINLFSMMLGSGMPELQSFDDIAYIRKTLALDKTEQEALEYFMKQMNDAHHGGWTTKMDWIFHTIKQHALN
T4 sequence (P27986 whole entry partner, species assumed): as the sequence (P27986 whole entry partner) above

Row | SMILES | IC50 [1, 12] [nM] | IC50 [2, 13] [nM] | IC50 [3, 14] [nM] | IC50 [4] [nM] | IC50 [5] [nM] | IC50 [6, 15] [nM] | IC50 [7, 16] [nM] | IC50 [8] [nM] | IC50 [9] [nM] | EC50 [10] [nM] | EC50 [11] [nM] | IC50 [2, 17] [nM] | IC50 [1, 18] [nM] | IC50 [3, 19] [nM] | IC50 [6, 20] [nM] | IC50 [7, 21] [nM]
1 | CN(Cc1nc2c(N3CCOCC3)nc(-c3cnc4ccccc4c3)nc2n1C)c1ncc(C(=O)NO)cn1 [CLJ-14, 2-(((2-(quinoline-3-yl)-9-methyl-6-morpholine-9H-purine-8-yl))methyl(methyl)amino)-N-hydroxyl pyrimidine-5-formamide] | 10 to 100 | < 100 | 0.1 to 10 | > 10000 | > 10000 | 0.1 to 10 | > 10000 | > 10000 | > 10000 | – | – | – | – | – | – | –
2 | CCCN(Cc1nc2c(N3CCOCC3)nc(-c3ccc(OC)nc3)nc2n1C)c1ncc(C(=O)NO)cn1 [CLJ-6, N-hydroxy-2-(((2-(6-methoxyl-3-pyridyl)-9-methyl-6-morpholine-9H-purine-8-yl))methyl(propyl)amino)pyrimidine-5-formamide] | > 1000 | 100 to 1000 | > 1000 | > 10000 | > 10000 | > 1000 | > 10000 | > 10000 | > 10000 | – | – | – | – | – | – | –
3 | COc1ccc(-c2nc(N3CCOCC3)c3sc(CN(C)c4ncc(C(=O)NO)cn4)cc3n2)cn1 [CUDC907, reference compound] | – | – | – | – | 1000 to 10000 | – | – | – | – | > 200 | 100 to 200 | – | – | – | – | –
4 | CN(Cc1nc2c(N3CCOCC3)nc(-c3ccc4[nH]ncc4c3)nc2n1C)c1ncc(C(=O)NO)cn1 [CLJ-15, 2-(((2-(1H-indazole-5-yl)-9-methyl-6-morpholine-9H-purine-8-yl))methyl(methyl)amino)-N-hydroxyl pyrimidine-5-formamide] | 10 to 100 | < 1 | 10 to 100 | > 10000 | > 10000 | 10 to 100 | 1000 to 10000 | > 10000 | > 10000 | – | – | < 1 | – | – | – | –
5 | Cc1ncc(-c2nc(N3CCOCC3)c3nc(CN(C)c4ncc(C(=O)NO)cn4)n(C)c3n2)cn1 [CLJ-13] | 0.1 to 10 | < 100 | 0.1 to 10 | 100 to 1000 | 100 to 1000 | 0.1 to 10 | < 100 | 100 to 1000 | 100 to 1000 | – | – | – | 0.1 to 10 | 0.1 to 10 | 0.1 to 10 | < 100
6 | CCN(Cc1nc2c(N3CCOCC3)nc(-c3ccc(OC)nc3)nc2n1C)c1ncc(C(=O)NO)cn1 [CLJ-5, N-hydroxy-2-(((2-(6-methoxyl-3-pyridyl)-9-methyl-6-morpholine-9H-purine-8-yl))methyl(ethyl)amino)pyrimidine-5-formamide] | 100 to 1000 | 100 to 1000 | 100 to 1000 | 100 to 1000 | 100 to 1000 | 100 to 1000 | < 100 | 100 to 1000 | 100 to 1000 | – | – | < 100 | – | – | – | < 100
7 | CNc1ncc(-c2nc(N3CCOCC3)c3nc(CN(C)c4ncc(C(=O)NO)cn4)n(C)c3n2)cn1 [CLJ-12, 2-(((2-(4-aminemethylpyrimidine)-9-methyl-6-morpholine-9H-purine-8-yl))methyl(methyl)amino)-N-hydroxyl pyrimidine-5-formamide] | 0.1 to 10 | < 100 | 0.1 to 10 | 100 to 1000 | 100 to 1000 | 0.1 to 10 | < 100 | 100 to 1000 | 100 to 1000 | – | – | – | 0.1 to 10 | 0.1 to 10 | 0.1 to 10 | < 100
